Source: ChEMBL document CHEMBL3044741, “Synthesis of novel biologically active methylene derivatives of sydnones” (Med Chem Res, 2013)
≈ marks a conversion by molar mass, not a printed value.

How the values were obtained:
MDA-MB-468 = assay: Cytotoxicity against human MDA-MB-468 assessed as cell growth at high concentration; type: functional
786-0 = assay: Cytotoxicity against human 786-0 assessed as cell growth at high concentration; type: functional
[1] = Cytotoxicity against human HEL cells assessed as alteration in cell morphology; type: cell-based
Human alphaherpesvirus 3 [2] = assay: Antiviral activity against Varicella-zoster virus Oka expressing thymidine kinase infected in HEL cells assessed as reduction in plaque formation; type: functional, organism-based; settings: Human alphaherpesvirus 3, strain Oka vaccine
HOP-92 = assay: Cytotoxicity against human HOP92 assessed as cell growth at high concentration; type: functional
M14 = assay: Cytotoxicity against human M14 assessed as cell growth at high concentration; type: functional
HCT-116 = assay: Cytotoxicity against human HCT116 assessed as cell growth at high concentration; type: functional
Human alphaherpesvirus 3 [3] = assay: Antiviral activity against thymidine kinase-deficient Varicella-zoster virus infected in HEL cells assessed as reduction in plaque formation; type: functional, organism-based; settings: Human alphaherpesvirus 3, HEL
[4] = tested on: Human immunodeficiency virus 1; assay: Antiviral activity against HIV1 3B infected in MT4 cells assessed as inhibition of virus-induced cytopathogenicity by MTT assay; type: functional, organism-based; settings: Human immunodeficiency virus 1, 3B
Streptococcus pyogenes = assay: Antibacterial activity against Streptococcus pyogenes MTCC 442 after 24 hrs by broth dilution method; type: functional; settings: MTCC 442, 24 h
HL-60(TB) = assay: Cytotoxicity against human HL-60(TB) assessed as cell growth at high concentration; type: functional
SF-539 = assay: Cytotoxicity against human SF539 assessed as cell growth at high concentration; type: functional
HT-29 = assay: Cytotoxicity against human HT-29 assessed as cell growth at high concentration; type: functional
Malme-3M = assay: Cytotoxicity against human MALME-3M assessed as cell growth at high concentration; type: functional
MDA-MB-435 = assay: Cytotoxicity against human MDA-MB-435 assessed as cell growth at high concentration; type: functional
Staphylococcus aureus = assay: Antibacterial activity against Staphylococcus aureus MTCC 96 after 24 hrs by broth dilution method; type: functional; settings: MTCC 96, 24 h
MDA-MB-231 = assay: Cytotoxicity against human MDA-MB-231 assessed as cell growth at high concentration; type: functional
SK-MEL-28 = assay: Cytotoxicity against human SK-MEL-28 assessed as cell growth at high concentration; type: functional
[5] = tested on: Human immunodeficiency virus 2; assay: Antiviral activity against HIV2 ROD infected in MT4 cells assessed as inhibition of virus-induced cytopathogenicity by MTT assay; type: functional, organism-based; settings: Human immunodeficiency virus 2, ISOLATE ROD
Pseudomonas aeruginosa = assay: Antibacterial activity against Pseudomonas aeruginosa MTCC 424 at 250 ug/ml after 24 hrs by Kirby-Bauer method; type: functional; settings: MTCC 424, 24 h, read-out: IZ
COLO 205 = assay: Cytotoxicity against human COLO205 assessed as cell growth at high concentration; type: functional
Aspergillus niger = assay: Antifungal activity against Aspergillus niger MTCC 282 at 250 ug/ml after 74 hrs by Kirby-Bauer method; type: functional; settings: MTCC 282, 74 h, read-out: IZ

Row | Compound | Activity (MDA-MB-468) [%] | Activity (786-0) [%] | MCC [1] [µg/mL] | EC50 (Human alphaherpesvirus 3 [2]) [mg/L] | Activity (HOP-92) [%] | Activity (M14) [%] | Activity (HCT-116) [%] | EC50 (Human alphaherpesvirus 3 [3]) [mg/L] | IC50 [4] [mg/L] | MIC (Streptococcus pyogenes) [mg/L] | Activity (SF-539) [%] | Activity (HT-29) [%] | Activity (Malme-3M) [%] | Activity (MDA-MB-435) [%] | MIC (Staphylococcus aureus) [mg/L] | Activity (MDA-MB-231) [%] | Activity (SK-MEL-28) [%] | IC50 [5] [mg/L] | zone of inhibition at 250 µg/mL (Pseudomonas aeruginosa) [mm] | Activity (COLO 205) [%] | other results
1 | Cc1ccc(-[n+]2noc([O-])c2CN2CCNCC2)cc1 | 101.9 | 105.96 | 100 | > 20 | 76.22 | 105.86 | 108.38 | > 20 | > 32.6 | 500 (≈ 1820 µM) | 101.2 | 105.21 | 109.79 | 103.5 | 200 (≈ 729 µM) | 86.16 | 105.58 | > 32.6 | 23 | 99.98 | Activity (HL-60(TB)): 118.68%; zone of inhibition at 250 µg/mL (Aspergillus niger): 25 mm
2 | Cc1ccc(-[n+]2noc([O-])c2CN2CCN(c3cccc(Cl)c3)CC2)cc1 | 80.15 | 101.4 | 100 | > 20 | 72.29 | 107.94 | 82.24 | > 20 | > 27.4 | 125 (≈ 325 µM) | 92.15 | 90.87 | 95.22 | 100.2 | 62.5 (≈ 162 µM) | 75.33 | 98.44 | > 27.4 | 21 | 89.45 | zone of inhibition at 250 µg/mL (Aspergillus niger): 23 mm
